Columns and labels:
[1] = crystalline form
Text: A weighed aluminum pan configured as the sample pan was placed on the […] side of the cell.

CYP 2C9 = CYP 2C9 (Homo sapiens, UniProt P11712); settings: tolbutamide hydroxylation assay; relative to (S)-enantiomer; cited from earlier work
CYP 2C9, sequence (P11712 whole entry, species assumed): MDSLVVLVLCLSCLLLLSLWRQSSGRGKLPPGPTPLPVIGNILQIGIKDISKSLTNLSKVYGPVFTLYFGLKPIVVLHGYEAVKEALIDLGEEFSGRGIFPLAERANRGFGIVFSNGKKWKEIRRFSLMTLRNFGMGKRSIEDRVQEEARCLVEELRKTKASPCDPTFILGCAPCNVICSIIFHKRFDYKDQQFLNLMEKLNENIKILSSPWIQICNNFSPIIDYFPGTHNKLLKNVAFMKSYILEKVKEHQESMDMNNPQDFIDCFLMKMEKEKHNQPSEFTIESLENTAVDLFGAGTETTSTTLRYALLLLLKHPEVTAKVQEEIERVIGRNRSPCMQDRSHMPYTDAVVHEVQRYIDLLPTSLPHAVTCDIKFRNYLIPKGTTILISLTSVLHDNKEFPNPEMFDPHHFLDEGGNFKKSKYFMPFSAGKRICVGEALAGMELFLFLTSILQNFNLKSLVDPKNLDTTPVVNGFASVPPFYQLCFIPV

2-hydroxy-N,N,N-trimethylethan-1-aminium (2R)-2-(4-chlorophenyl)-2-[3-(trifluoromethyl)phenoxy]acetate [CB-0406 choline salt]
stability to thermal stress [1]: good stability to thermal stress

O=C(O)[C@H](Oc1cccc(C(F)(F)F)c1)c1ccc(Cl)cc1 [CB-0406, (2R)-2-(4-chlorophenyl)-2-[3-(trifluoromethyl)phenoxy]acetic acid]
fold less active as an inhibitor of CYP 2C9 than its (S)-enantiomer (CYP 2C9): approximately 20 fold

From patent US20210355066A1 (CymaBay Therapeutics, Inc., priority 2020, published 2021)
